Test results as given in US20230371508A1, “COMPOSITIONS AND METHODS FOR KILLING INSECT AND NON-INSECT PESTS” (The United States of America, as represented by the …, priority 2018, published 2023).
Values after ≈ are worked out from the molar mass of the structure shown. “Also recorded” adds a separate entry of the source. Read-outs that look alike come from different tables or passages of the source.

Legend:
L. dispar larvae = test: Larvicidal toxicity, treated filter paper in Petri dish; assay type: in vivo; conditions: for LC50 (95% CL): 1st stage larvae, 24 hr; for larvicidal toxicity against L. dispar (in words): in vivo
Method: Toxicities of MB and some compounds of formula 1 on L. dispar larvae: The bioassays were carried out in plastic Petri dish loaded with filter paper, following a published procedure (Nielsen 2008). 600 μL acetone solution of one derivative with different concentrations was loaded onto the filter paper (90 mm diameter) evenly, and the filter paper was dried for 2 min and then put into the bottom of Petri dish. 10 L. dispar larvae were put onto the Petri dish and covered with a lid. 30 larvae were used for each amount. The mortality was assessed after 24 hr.

S. invicta workers [1] = test: Fumigant toxicity in sealed glass flask; assay type: in vivo, Solenopsis invicta; conditions: for mortality at 1.43 µg/mL / LC50: Solenopsis invicta
Method: A 250-ml glass flask (the whole volume is 280 ml) was used to house worker ants in fumigant toxicity bioassays. Two micro-liter of acetone solution of the tested compound was applied onto a paraffin film, which was used to seal the flask with ants. The treated spot of the paraffin film faced the inside of the flask. The upper part of the flask was coated with Fluon® to prevent ants from contacting the test material. Two experiments were conducted. […] LC50 value was established using 5 dosages. Each dosage was replicated 3 times for each of 3 colonies. Each replicate consisted of 15 to 26 ants. Ants that could not stand by themselves were considered dead. Dead ants were counted after 24 h.

D. suzukii = test: Insecticidal activity on larvae and pupae development and adult emergence in pre-infested blueberries (dip); assay type: in vivo, Drosophila suzukii; conditions: for Adults / Larvae / Pupae: pre-infested berries soaked 2 min in 1% solution, assessed after 10 days at room temperature, mean of three replicates (standard error); for insecticidal toxicity against D. suzukii (in words): 1% concentration on 4 days pre-infested blueberries, 10 days incubation
Method: Impacts of MB and other compounds on D. suzukii control: To investigate the acute toxicity of some compounds of formula 1 against D. suzukii, a published procedure was followed (Cuthbertson, A. G. S., et al., Insects, 5: 488-498 (2014)). First, mixed-sex adults D. suzukii (100) were introduced into a plastic cage (30×30×30 cm) and reared on blueberries (100) for 4 days. After that, the infested blueberries were taken out from the cage. Half of the blueberries (50) were dipped in 100 mL aqueous emulsion of each compound listed in Table 1 at 1% concentration for 2 min as treatment, while the other half of the blueberries (50) were dipped in DI water for 2 min as blank control. Then the corresponding blueberries were separately taken out, placed in two different Petri dishes, and allowed to air dry for 2 h. Second, treatment and blank control blueberries were respectively stored in two plastic cups (32 oz) with closed caps and incubated at room temperature for 10 days. The emergence of adults was then subsequently assessed. The developments of larvae and pupae were further inspected by dissection of the treatment and blank control berries. Each treatment and blank control was repeated three times.

H. halys nymphs = test: Nymphicidal toxicity, treated filter paper in glass vial; assay type: in vivo
Method: Toxicities of MB, some compounds of formula 1, and commercial pesticides on H. halys nymphs: The bioassays were carried out in glass vials (20 mL), following a published procedure (Nielsen, A. L., et al., J. Econ. Entomol., 101: 1439-1442 (2008)). Filter paper was cut into round shape pieces (2.4 cm diameter). 50 μL acetone solution of one derivative or commercial pesticide with different concentrations was loaded onto the filter paper evenly, and the filter paper was dried for 1 min and then put into the bottom of vial. A small piece of green bean was put on the filter paper in the vial as food source. Different stages of H. halys nymphs were introduced into the vial and capped with a cotton ball. For each stage, 30 nymphs were used for each amount. For the nymphs of the first instar, 10 nymphs were put into 1 vial. For the nymphs of the second and third instar, 5 nymphs were put into 1 vial. For the nymphs of the fourth instar, 3 nymphs were put into 1 vial. For the nymphs of the fifth instar, 2 nymphs were put into 1 vial. The mortality was assessed after 24 hr.

S. invicta workers [2] = conditions: for contact toxicity against S. invicta (in words): in vivo; for increase of mean mortality compared with MB / mean mortality: dose 77.9 μg/ant, 24 h
Method: Fire ant bioassays were conducted in USDA, ARS Stoneville laboratory at 25° C., 80% R.H. with a 12:12 (L:D) photoperiod. Contact toxicities of MB and some compounds of formula 1 against fire ants: Topical application was used for contact toxicity bioassay. Only large workers were used for a purpose of relatively uniform body weight and ease of handling. For all compounds, acetone was used as a solvent. The solution was applied using a 0.779 μl capillary tube. Two experiments were conducted for assessing contact toxicity. […] In order to investigate the structure-activity relationship, LD50 values were also established for MB and EB. […] For each LD50 value, 5 doses of benzoates were used. Each dose was replicated 3 times. Each replicate consisted of 13 to 18 ants. Treated ants were placed in a 30-ml capped cup and dead ants were counted after 24 h.

H. halys eggs = test: Ovicidal toxicity, direct spray on eggs; assay type: in vivo; conditions: eggs sprayed, 10 days
Source text: (§1) Ovicidal toxicities of MB and some compounds of formula 1: The aqueous solutions of one of the compounds of formula 1 with designated concentrations with different concentrations of active ingredient (AI) were separately stored in glass spray bottles according to a published procedure (Cuthbertson 2014). The eggs (10 for H. halys and 100 for P. xylostella) were laid on filter papers in Petri dishes. Different aqueous insecticidal solutions were sprayed on the surfaces of different eggs three times (˜0.5 mL) to completely cover the treatment areas. Then the Petri dishes were covered with lids and maintained in a fume hood for 10 days. The Petri dishes were then inspected for presence of nymph/larvae development or numbers of unhatched eggs.

Plutella xylostella eggs = test: Ovicidal toxicity, direct spray on eggs; assay type: in vivo; conditions: hatchability after 10 days; 0.05% and 0.1% concentrations (FIG. 3)
Source text: as §1

[3] = 24 h, read-out: mean mortality, dosage 1.43 μg/ml, 24 h

SMILES | LC50 (95% CL) (L. dispar larvae) | mortality at 1.43 µg/mL (S. invicta workers [1]; [3]) | Adults (D. suzukii) | Larvae (D. suzukii) | Pupae (D. suzukii) | LD50 (S. invicta workers [2]; colony 1, 24 h) | LD50 (S. invicta workers [2]; colony 2, 24 h) | LD50 (S. invicta workers [2]; colony 3, 24 h) | LC50 (95% CL) (H. halys eggs) | LC50 (95% CL) (H. halys nymphs; 3rd stage nymphs, 24 hr) | insecticidal toxicity against D. suzukii (in words) (D. suzukii) | toxicity against H. halys nymphs (in words) (H. halys nymphs; in vivo) | other results
CCCCOC(=O)c1ccccc1 [nBB, n-butyl benzoate] | 0.276 (0.223-0.393) mg/cm^2 | 2.34% | 25.3(1.5) | 4.7(1.2) | 15.0(2.9) | 77.13 μg/ant | 68.51 μg/ant | 50.04 μg/ant | – | – | – | – | decrease of mean mortality compared with MB (S. invicta workers [1]; dosage 1.43 μg/ml, 24 h): 42 times; LC50 (95% CL) (H. halys nymphs; 4th stage nymphs, 24 hr): 3.370 (2.441-6.922) μL/vial; contact toxicity against S. invicta (in words) (S. invicta workers [2]): comparable results; also recorded: potent contact toxicities
CCOC(=O)c1ccccc1 [EB, ethyl benzoate] | 0.115 (0.107-0.123) mg/cm^2 | – | 0 | 0 | 0 | 164.32 μg/ant | 129.62 μg/ant | 126.53 μg/ant | 0.014 (0.010-0.019) mg/cm^2 | 1.604 (1.468-1.756) μL/vial | – | – | LC50 (S. invicta workers [1]; 24 h, colony 1, 24 h, read-out: LC50): 0.89 µg/mL (≈ 5.93 µM); LC50 (S. invicta workers [1]; 24 h, colony 2, 24 h, read-out: LC50): 0.76 µg/mL (≈ 5.06 µM); LC50 (S. invicta workers [1]; 24 h, colony 3, 24 h, read-out: LC50): 1.14 µg/mL (≈ 7.59 µM); mortality at 1.43 µg/mL (S. invicta workers [1]; 24 h, dosage 1.43 μg/ml, 24 h, read-out: mean mortality): ~100%; LC50 (S. invicta workers [1]; 24 h, mean over colonies, 24 h, read-out: mean LC50 value): 0.93 µg/mL (≈ 6.19 µM)
COC(=O)c1ccccc1Cl [M2CB, methyl 2-chlorobenzoate] | 0.130 (0.097-0.159) mg/cm^2 | 70 to 80% | 0 | 0 | 0 | – | – | – | 0.011 (0.008-0.013) mg/cm^2 | – | – | – | LC50 (S. invicta workers [1]; 24 h, colony 1, 24 h): 0.89 µg/mL (≈ 5.22 µM); LC50 (S. invicta workers [1]; 24 h, colony 2, 24 h): 0.77 µg/mL (≈ 4.51 µM); LC50 (S. invicta workers [1]; 24 h, colony 3, 24 h): 0.56 µg/mL (≈ 3.28 µM); mean mortality (S. invicta workers [1]; dosage 1.43 μg/ml, 24 h): 79.4%; LC50 (95% CL) (H. halys nymphs; 2nd stage nymphs, 24 hr): 1.302 (1.137-1.610) μL/vial
CC(COc1ccc(Oc2ccccc2)cc1)Oc1ccccn1 (centres unmarked) [PF, pyriproxyfen, reference compound] | 0.086 (0.057-0.124) mg/cm^2 | – | – | – | – | – | – | – | – | 1.798 (1.397-2.797) μL/vial | – | – | LC50 (95% CL) (L. dispar larvae; listed as pyriproxyfen): 0.086 mg/cm^2; LC50 (95% CL) (H. halys nymphs; 5th stage nymphs, 24 hr): 2.700 (1.881-4.836) μL/vial
CC(C)COC(=O)c1ccccc1 [iBB, iso-butyl benzoate] | 0.193 (0.165-0.234) mg/cm^2 | – | 24.7(0.9) | 6.0(1.5) | 15.7(1.9) | 80.07 μg/ant | 96.57 μg/ant | 55.75 μg/ant | – | 4.890 (2.845-24.779) μL/vial | poor toxicities | deficient toxicities | –
COC(=O)c1cccc(C)c1 [M3MB, methyl 3-methylbenzoate] | 0.102 (0.083-0.121) mg/cm^2 | ~100% | 0 | 0 | 0 | 70.32 μg/ant | 107.48 μg/ant | 67.73 μg/ant | 0.016 (0.009-0.024) mg/cm^2 | – | – | – | LC50 (S. invicta workers [1]; 24 h, colony 1, 24 h): 0.62 µg/mL (≈ 4.13 µM); LC50 (S. invicta workers [1]; 24 h, colony 2, 24 h): 0.7 µg/mL (≈ 4.66 µM); LC50 (S. invicta workers [1]; 24 h, colony 3, 24 h): 0.63 µg/mL (≈ 4.2 µM); LC50 (S. invicta workers [1]; 24 h, read-out: mean LC50 value, mean over colonies, 24 h): 0.65 µg/mL (≈ 4.33 µM); LC50 (95% CL) (H. halys nymphs; 4th stage nymphs, 24 hr): 2.433 (2.000-3.417) μL/vial
COC(=O)c1ccccc1[N+](=O)[O-] [M2NB, methyl 2-nitrobenzoate] | – | 0% | 0 | 0 | 0 | – | – | – | 0.010 (0.002-0.019) mg/cm^2 | – | – | ineffective | larvicidal toxicity against L. dispar (in words) (L. dispar larvae): did not show any toxicities
COC(=O)c1ccccc1C [M2MB, methyl 2-methylbenzoate] | 0.155 (0.134-0.174) mg/cm^2 | 70 to 80% | 0 | 0 | 0 | – | – | – | 0.014 (0.005-0.027) mg/cm^2 | – | – | – | fumigant toxicity against S. invicta (in words) (S. invicta workers [1]; in vivo): significantly reduced; LC50 (95% CL) (H. halys nymphs; 2nd stage nymphs, 24 hr): 0.974 (0.827-1.109) μL/vial
CCCOC(=O)c1ccccc1 [nPrB, n-propyl benzoate] | 0.159 (0.135-0.199) mg/cm^2 | 79.4% | 3.0(0.6) | 1.7(0.3) | 4.0(0.6) | 109.89 μg/ant | 109.26 μg/ant | – | – | 2.591 (2.086-3.839) μL/vial | good insecticidal toxicity | – | increase of mean mortality compared with MB (S. invicta workers [2]): 6 times; mean mortality (S. invicta workers [2]): 45.5%
C/C(=N\C#N)N(C)Cc1ccc(Cl)nc1 [AP, acetamiprid, reference compound] | 0.221 (0.167-0.291) mg/cm^2 | – | – | – | – | – | – | – | – | 0.475 (0.301-0.641) μL/vial | – | – | LC50 (95% CL) (L. dispar larvae; listed as acetamiprid): 0.221 mg/cm^2; LC50 (95% CL) (H. halys nymphs; 2nd stage nymphs, 24 hr): 0.257 (0.169-0.340) μL/vial; LC50 (95% CL) (H. halys nymphs; 5th stage nymphs, 24 hr): 1.414 (1.165-1.642) μL/vial
CCCCCOC(=O)c1ccccc1 [nPeB, n-pentyl benzoate] | 0.165 (0.118-0.208) mg/cm^2 | – | 36.3(3.9) | 5.3(0.9) | 37.7(6.7) | 35.97 μg/ant | 41.16 μg/ant | 28.64 μg/ant | – | – | did not show any insecticidal activities | did not show toxicities | ovicidal toxicity against P. xylostella eggs (in words) (Plutella xylostella eggs): comparable toxicity comparing with MB; increase of mean mortality compared with MB (S. invicta workers [2]): 13 times; mean mortality (S. invicta workers [2]): 99.26%; contact toxicity against S. invicta (in words) (S. invicta workers [2]): comparable results; also recorded: potent contact toxicities
O=C(OCc1ccccc1)c1ccccc1 [BB, benzyl benzoate] | – | – | 40.0(8.4) | 5.7(0.7) | 40.0(5.8) | – | – | – | – | – | poor toxicities | deficient toxicities | larvicidal toxicity against L. dispar (in words) (L. dispar larvae): did not show any toxicities; LC50 (95% CL) (H. halys nymphs; in vivo): 5.619 (3.028-44.599) μL/vial; contact toxicity against S. invicta (in words) (S. invicta workers [2]): potent contact toxicities
